Experimental data as given in PMC4384708, “Molecular imaging of angiogenesis after myocardial infarction by ^111In-DTPA-cNGR and ^99mTc-sestamibi dual-isotope myocardial SPECT” (EJNMMI Research, 2015).

Legend:
[1] = ^99mTc-sestamibi perfusion uptake (SUV) per AHA 17 segment, in vivo dual-isotope micro-SPECT; set-up: species or system Swiss mice
Method: MI was induced in 10- to 12-week old male Swiss mice by ligation of the left anterior descending coronary artery (LAD) (n = 7), as previously described. The angiogenesis imaging protocol was performed 7 days after the LAD ligation. A group of non-operated male Swiss mice (n = 5) was used as control. A variable number of animals were available for analysis per experiment. For SPECT scans, seven MI mice and five control mice were used while for biodistribution purposes ≥5 MI mice and ≥4 control mice were used. Furthermore, a group of six 10- to 12-week old male Swiss mice were bilaterally, subcutaneously implanted in the flanks with Matrigel (Table 1). […] All animals were held under the guidelines of the animal care facility (Maastricht University). All animal experiments were approved by the Committee for Animal Welfare of Maastricht University.
Mice were anesthetised with isoflurane (induction 2.5%; maintenance; 1.5%), a catheter was placed in the tail vein and the animals were positioned in the micro-SPECT camera (MiLabs, Utrecht, The Netherlands).
U-SPECT-II reconstruction software version 2.38 (MiLabs, Utrecht, The Netherlands) was used to reconstruct images. ^99mTc and ^111In images were reconstructed by selecting the photopeak (PP) and background (BG) windows as indicated in Figure 1.
To allow quantification of radiotracer uptake in vivo, conversion factors (CFs) were determined for the 0.6-mm collimator system in a representative phantom (20 ml) for ^99mTc and/or ^111In. During the SPECT reconstruction, the total amount of counts was distributed over the different voxels, resulting in a counts/voxel expression for the average concentration of counts. Taking into account the voxel volume (Vv), the CFs are calculated using equation (a):a ConversionfactorMBq=ActivityconcentrationMBq/ml/SPECTcountspervoxel/Vvml
The PMOD 2.95 cardiac tool PCARD (PMOD Technologies, Zürich, Switzerland) was used to segment the heart in the 17-segment model according to the American Heart Association (AHA) guidelines. For both the ^99mTc-sestamibi and ^111In-DTPA-cNGR images, the uptake was measured for each segment and expressed as mean standardised uptake value (SUVmean) using equation (b).b SUV=SPECTcountspervoxel×CF/VvMBq/ml×Bodyweightg/InjecteddoseMBq
For body weight, we assumed that 1 g of body weight equalled 1 ml.

[2] = tested on: CD13; conditions: cNGR tripeptide vs. linear entity; cited from earlier work
Text: In this study, we designed and developed a CD13 molecular imaging probe that allowed sensitive visualisation using micro-SPECT imaging. […] Thereto, the cNGR tripeptide was conjugated with diethylene triamine pentaacetic acid (DTPA), radiolabeled with ^111In and evaluated in a mouse model of myocardial infarction in combination with ^99mTc-sestamibi in dual-isotope micro-SPECT imaging. In order to determine binding spec ...

For `[C-]#[N+]CC(C)(C)OC.[C-]#[N+]CC(C)(C)OC.[C-]#[N+]CC(C)(C)OC.[C-]#[N+]CC(C)(C)OC.[C-]#[N+]CC(C)(C)OC.[C-]#[N+]CC(C)(C)OC.[Tc]` [^99mTc-sestamibi], the SUV ([1]; segment 1. Basal anterior, MI mice n = 7, 7 days after LAD ligation, mean ± S.E.M.) was 1.94 ± 0.36, the SUV ([1]; segment 1. Basal anterior, healthy control mice n = 5, mean ± S.E.M.) was 1.87 ± 0.34 and the SUV ([1]; segment 2. Basal anteroseptal, MI mice n = 7, 7 days after LAD ligation, mean ± S.E.M.) was 1.72 ± 0.33. It also gave an SUV ([1]; segment 2. Basal anteroseptal, healthy control mice n = 5, mean ± S.E.M.) of 1.63 ± 0.28, an SUV ([1]; segment 3. Basal inferoseptal, MI mice n = 7, 7 days after LAD ligation, mean ± S.E.M.) of 1.38 ± 0.28 and an SUV ([1]; segment 3. Basal inferoseptal, healthy control mice n = 5, mean ± S.E.M.) of 1.54 ± 0.29. For the same compound, the SUV ([1]; segment 4. Basal inferior, MI mice n = 7, 7 days after LAD ligation, mean ± S.E.M.) was 1.64 ± 0.24, the SUV ([1]; segment 4. Basal inferior, healthy control mice n = 5, mean ± S.E.M.) was 1.77 ± 0.28 and the SUV ([1]; segment 5. Basal inferolateral, MI mice n = 7, 7 days after LAD ligation, mean ± S.E.M.) was 1.78 ± 0.31. It also gave an SUV ([1]; segment 5. Basal inferolateral, healthy control mice n = 5, mean ± S.E.M.) of 1.68 ± 0.30, an SUV ([1]; segment 6. Basal anterolateral, MI mice n = 7, 7 days after LAD ligation, mean ± S.E.M.) of 2.11 ± 0.39 and an SUV ([1]; segment 6. Basal anterolateral, healthy control mice n = 5, mean ± S.E.M.) of 1.95 ± 0.33. For the same compound, the SUV ([1]; segment 7. Mid anterior, MI mice n = 7, 7 days after LAD ligation, mean ± S.E.M.) was 1.18 ± 0.26, the SUV ([1]; segment 7. Mid anterior, healthy control mice n = 5, mean ± S.E.M.) was 1.80 ± 0.30 and the SUV ([1]; segment 8. Mid anteroseptal, MI mice n = 7, 7 days after LAD ligation, mean ± S.E.M.) was 1.73 ± 0.27. The SUV ([1]; segment 8. Mid anteroseptal, healthy control mice n = 5, mean ± S.E.M.) was 1.67 ± 0.28, the SUV ([1]; segment 9. Mid inferoseptal, MI mice n = 7, 7 days after LAD ligation, mean ± S.E.M.) was 1.82 ± 0.30 and the SUV ([1]; segment 9. Mid inferoseptal, healthy control mice n = 5, mean ± S.E.M.) was 1.80 ± 0.34. It also gave an SUV ([1]; segment 10. Mid inferior, MI mice n = 7, 7 days after LAD ligation, mean ± S.E.M.) of 1.85 ± 0.31, an SUV ([1]; segment 10. Mid inferior, healthy control mice n = 5, mean ± S.E.M.) of 1.72 ± 0.28 and an SUV ([1]; segment 11. Mid inferolateral, MI mice n = 7, 7 days after LAD ligation, mean ± S.E.M.) of 1.60 ± 0.32. For the same compound, the SUV ([1]; segment 11. Mid inferolateral, healthy control mice n = 5, mean ± S.E.M.) was 1.71 ± 0.25, the SUV ([1]; segment 12. Mid anterolateral, MI mice n = 7, 7 days after LAD ligation, mean ± S.E.M.) was 1.15 ± 0.37 and the SUV ([1]; segment 12. Mid anterolateral, healthy control mice n = 5, mean ± S.E.M.) was 2.03 ± 0.32. It also gave an SUV ([1]; segment 13. Apical anterior, MI mice n = 7, 7 days after LAD ligation, mean ± S.E.M.) of 0.49 ± 0.10, an SUV ([1]; segment 13. Apical anterior, healthy control mice n = 5, mean ± S.E.M.) of 1.64 ± 0.30 and an SUV ([1]; segment 14. Apical septal, MI mice n = 7, 7 days after LAD ligation, mean ± S.E.M.) of 1.55 ± 0.25. It also gave an SUV ([1]; segment 14. Apical septal, healthy control mice n = 5, mean ± S.E.M.) of 1.82 ± 0.34, an SUV ([1]; segment 15. Apical inferior, MI mice n = 7, 7 days after LAD ligation, mean ± S.E.M.) of 1.36 ± 0.35 and an SUV ([1]; segment 15. Apical inferior, healthy control mice n = 5, mean ± S.E.M.) of 1.67 ± 0.28. The SUV ([1]; segment 16. Apical lateral, MI mice n = 7, 7 days after LAD ligation, mean ± S.E.M.) was 0.64 ± 0.24, the SUV ([1]; segment 16. Apical lateral, healthy control mice n = 5, mean ± S.E.M.) was 1.60 ± 0.30 and the SUV ([1]; segment 17. Apex, MI mice n = 7, 7 days after LAD ligation, mean ± S.E.M.) was 0.39 ± 0.17. The SUV ([1]; segment 17. Apex, healthy control mice n = 5, mean ± S.E.M.) was 1.47 ± 0.34.
For “oxidised NAc-Cys-Asn-Gly-Arg-Cys-Gly-Gly-Lys-NH2 (disulfide) [cNGR, cyclic(NAc-Cys-Asn-Gly-Arg-Cys-Gly-Gly-Lys), disulfide-cyclised CD13-homing peptide]”, the “targeting efficacy relative to the linear entity” value [2] is given as “tenfold higher”.
